Test results as given in patent US11746116B2, “Antibiotic resistance breakers” (KING'S COLLEGE LONDON, priority 2017, dated 2023).
In brackets after ≈: the same amount, converted by molar mass. Read-outs that look alike come from different tables or passages of the source.

Legend:
CYP2C9 = CYP2C9 (Homo sapiens, UniProt P11712); test: in vitro; settings: microsomes, % inhibition, CYP2C9 inhibition (HLM, diclofenac substrate)
CYP1A (printed CYPiA) = test: in vitro; settings: human, microsomes, % inhibition, CYPiA inhibition (HLM, phenacetin substrate)
CYP2C8 = CYP2C8 (Homo sapiens, UniProt P10632); test: in vitro; settings: microsomes, % inhibition, CYP2C8 inhibition (HLM, amodiaquine substrate)
Chain of CYP2C8 (P10632 whole entry): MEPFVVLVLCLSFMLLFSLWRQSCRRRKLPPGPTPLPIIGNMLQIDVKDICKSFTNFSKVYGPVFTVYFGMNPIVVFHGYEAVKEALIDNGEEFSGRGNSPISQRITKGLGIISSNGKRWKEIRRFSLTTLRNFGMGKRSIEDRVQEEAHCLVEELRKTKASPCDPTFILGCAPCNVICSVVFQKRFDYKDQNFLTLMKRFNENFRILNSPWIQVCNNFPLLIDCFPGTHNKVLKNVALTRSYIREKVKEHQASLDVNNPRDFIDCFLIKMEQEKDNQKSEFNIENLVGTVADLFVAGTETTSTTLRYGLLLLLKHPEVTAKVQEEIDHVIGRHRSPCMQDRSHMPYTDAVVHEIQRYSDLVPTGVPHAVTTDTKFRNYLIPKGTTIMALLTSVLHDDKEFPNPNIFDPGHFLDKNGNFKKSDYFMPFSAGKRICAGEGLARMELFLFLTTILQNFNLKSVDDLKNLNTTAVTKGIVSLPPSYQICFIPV

CYP2B6 = CYP2B6 (Homo sapiens, UniProt P20813); test: in vitro; settings: microsomes, % inhibition, CYP2B6 inhibition (HLM, bupropion substrate)
Chain of CYP2B6 (P20813 whole entry): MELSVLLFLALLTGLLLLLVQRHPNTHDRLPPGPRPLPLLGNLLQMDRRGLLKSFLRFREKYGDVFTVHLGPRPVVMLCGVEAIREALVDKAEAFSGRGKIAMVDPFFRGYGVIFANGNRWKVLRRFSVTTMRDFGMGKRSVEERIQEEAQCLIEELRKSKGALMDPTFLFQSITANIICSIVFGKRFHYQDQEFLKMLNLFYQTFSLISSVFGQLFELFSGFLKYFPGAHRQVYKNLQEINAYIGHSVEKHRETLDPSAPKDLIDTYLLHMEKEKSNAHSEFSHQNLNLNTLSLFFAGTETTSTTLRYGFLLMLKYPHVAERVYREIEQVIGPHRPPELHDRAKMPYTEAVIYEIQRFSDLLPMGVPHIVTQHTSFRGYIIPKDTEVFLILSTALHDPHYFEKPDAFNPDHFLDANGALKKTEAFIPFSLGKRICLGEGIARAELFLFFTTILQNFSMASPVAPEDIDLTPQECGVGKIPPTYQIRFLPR

CYP2C19 = CYP2C19 (Homo sapiens, UniProt P33261); test: in vitro; settings: microsomes, % inhibition, CYP2C19 inhibition (HLM, omeprazole substrate)
CYP2D6 = CYP2D6 (Homo sapiens, UniProt P10635); test: in vitro; settings: microsomes, % inhibition, CYP2D6 inhibition (HLM, dextromethorphan substrate)
Chain of CYP2D6 (P10635 whole entry): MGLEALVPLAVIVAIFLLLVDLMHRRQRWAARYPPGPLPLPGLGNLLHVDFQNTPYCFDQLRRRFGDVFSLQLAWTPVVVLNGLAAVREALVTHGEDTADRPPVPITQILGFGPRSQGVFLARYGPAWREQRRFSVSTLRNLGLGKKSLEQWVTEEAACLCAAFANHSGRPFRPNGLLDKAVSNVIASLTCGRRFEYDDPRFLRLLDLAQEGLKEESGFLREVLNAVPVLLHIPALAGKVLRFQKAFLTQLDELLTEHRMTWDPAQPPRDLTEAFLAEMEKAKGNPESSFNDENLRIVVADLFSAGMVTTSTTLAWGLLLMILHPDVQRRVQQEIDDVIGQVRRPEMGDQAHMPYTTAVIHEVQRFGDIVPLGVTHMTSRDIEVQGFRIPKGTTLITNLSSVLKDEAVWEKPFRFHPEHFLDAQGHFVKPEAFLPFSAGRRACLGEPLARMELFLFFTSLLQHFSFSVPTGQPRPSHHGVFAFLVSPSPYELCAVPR

CYP3A = test: in vitro; settings: human, microsomes, % inhibition
[1] = system: Neisseria gonorrhoeae strains
[2] = molecular target: Safetyscreen44 off target panel (Rattus norvegicus, UniProt P34975)
[3] = molecular target: Safetyscreen44 off target panel (Homo sapiens, UniProt P35354)
Chain of Safetyscreen44 off target panel (Homo sapiens, UniProt P35354) (P35354 18-604): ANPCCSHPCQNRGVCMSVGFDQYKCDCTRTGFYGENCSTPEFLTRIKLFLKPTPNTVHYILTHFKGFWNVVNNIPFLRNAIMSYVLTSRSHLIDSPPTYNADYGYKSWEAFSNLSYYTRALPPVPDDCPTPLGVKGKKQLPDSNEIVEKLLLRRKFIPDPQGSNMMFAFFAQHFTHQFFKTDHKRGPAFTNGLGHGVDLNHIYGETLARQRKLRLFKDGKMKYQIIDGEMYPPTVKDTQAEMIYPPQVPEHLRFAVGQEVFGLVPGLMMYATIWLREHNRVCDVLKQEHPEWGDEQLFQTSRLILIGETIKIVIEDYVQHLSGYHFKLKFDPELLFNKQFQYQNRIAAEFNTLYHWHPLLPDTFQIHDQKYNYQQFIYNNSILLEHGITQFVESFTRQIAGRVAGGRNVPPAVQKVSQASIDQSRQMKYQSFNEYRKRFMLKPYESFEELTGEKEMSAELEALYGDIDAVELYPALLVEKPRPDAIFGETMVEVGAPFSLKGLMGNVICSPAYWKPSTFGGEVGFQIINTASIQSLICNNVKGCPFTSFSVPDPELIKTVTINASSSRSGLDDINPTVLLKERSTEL

[4] = molecular target: Safetyscreen44 off target panel (Homo sapiens, UniProt P10275)
Chain of Safetyscreen44 off target panel (Homo sapiens, UniProt P10275) (P10275 whole entry): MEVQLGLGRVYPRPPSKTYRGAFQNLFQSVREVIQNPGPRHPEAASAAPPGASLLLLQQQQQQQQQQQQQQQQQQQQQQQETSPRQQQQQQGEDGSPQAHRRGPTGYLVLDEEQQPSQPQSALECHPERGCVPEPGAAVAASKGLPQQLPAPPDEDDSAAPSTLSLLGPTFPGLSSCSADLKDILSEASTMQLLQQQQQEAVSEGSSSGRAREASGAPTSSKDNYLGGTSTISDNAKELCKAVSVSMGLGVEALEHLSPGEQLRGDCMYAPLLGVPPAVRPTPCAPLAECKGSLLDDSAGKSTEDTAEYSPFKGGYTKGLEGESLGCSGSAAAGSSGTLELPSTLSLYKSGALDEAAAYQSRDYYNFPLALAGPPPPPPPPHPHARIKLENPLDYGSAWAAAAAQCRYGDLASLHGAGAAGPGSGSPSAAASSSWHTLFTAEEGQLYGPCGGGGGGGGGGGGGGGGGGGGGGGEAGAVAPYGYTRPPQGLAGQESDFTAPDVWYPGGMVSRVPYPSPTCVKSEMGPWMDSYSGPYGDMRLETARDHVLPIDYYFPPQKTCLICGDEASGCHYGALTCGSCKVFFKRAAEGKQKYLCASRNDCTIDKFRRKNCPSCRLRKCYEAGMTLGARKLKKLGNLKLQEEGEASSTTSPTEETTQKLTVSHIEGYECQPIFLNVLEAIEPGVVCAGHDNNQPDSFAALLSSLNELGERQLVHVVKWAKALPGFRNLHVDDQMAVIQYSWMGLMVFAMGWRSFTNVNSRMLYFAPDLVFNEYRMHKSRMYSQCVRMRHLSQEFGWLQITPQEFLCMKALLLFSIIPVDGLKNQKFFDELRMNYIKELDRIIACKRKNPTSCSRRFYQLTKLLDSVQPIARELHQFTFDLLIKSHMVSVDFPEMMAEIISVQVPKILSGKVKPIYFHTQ

[5] = molecular target: Safetyscreen44 off target panel (Homo sapiens, UniProt P28223)
[6] = molecular target: Safetyscreen44 off target panel (Homo sapiens, UniProt P25101)
Chain of Safetyscreen44 off target panel (Homo sapiens, UniProt P25101) (P25101 21-427): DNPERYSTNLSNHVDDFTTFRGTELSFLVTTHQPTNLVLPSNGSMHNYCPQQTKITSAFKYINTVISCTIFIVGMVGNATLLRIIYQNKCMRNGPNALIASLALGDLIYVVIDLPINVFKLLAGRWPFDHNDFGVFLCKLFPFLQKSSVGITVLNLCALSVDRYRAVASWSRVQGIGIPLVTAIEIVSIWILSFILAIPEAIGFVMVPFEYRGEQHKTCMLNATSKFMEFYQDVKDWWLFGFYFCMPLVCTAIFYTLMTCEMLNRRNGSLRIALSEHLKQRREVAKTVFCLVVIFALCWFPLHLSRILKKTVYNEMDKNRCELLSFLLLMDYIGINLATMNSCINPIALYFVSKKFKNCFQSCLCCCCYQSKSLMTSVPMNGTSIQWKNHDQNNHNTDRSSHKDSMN

[7] = molecular target: Safetyscreen44 off target panel (Homo sapiens, UniProt P04150)
Chain of Safetyscreen44 off target panel (Homo sapiens, UniProt P04150) (P04150 whole entry): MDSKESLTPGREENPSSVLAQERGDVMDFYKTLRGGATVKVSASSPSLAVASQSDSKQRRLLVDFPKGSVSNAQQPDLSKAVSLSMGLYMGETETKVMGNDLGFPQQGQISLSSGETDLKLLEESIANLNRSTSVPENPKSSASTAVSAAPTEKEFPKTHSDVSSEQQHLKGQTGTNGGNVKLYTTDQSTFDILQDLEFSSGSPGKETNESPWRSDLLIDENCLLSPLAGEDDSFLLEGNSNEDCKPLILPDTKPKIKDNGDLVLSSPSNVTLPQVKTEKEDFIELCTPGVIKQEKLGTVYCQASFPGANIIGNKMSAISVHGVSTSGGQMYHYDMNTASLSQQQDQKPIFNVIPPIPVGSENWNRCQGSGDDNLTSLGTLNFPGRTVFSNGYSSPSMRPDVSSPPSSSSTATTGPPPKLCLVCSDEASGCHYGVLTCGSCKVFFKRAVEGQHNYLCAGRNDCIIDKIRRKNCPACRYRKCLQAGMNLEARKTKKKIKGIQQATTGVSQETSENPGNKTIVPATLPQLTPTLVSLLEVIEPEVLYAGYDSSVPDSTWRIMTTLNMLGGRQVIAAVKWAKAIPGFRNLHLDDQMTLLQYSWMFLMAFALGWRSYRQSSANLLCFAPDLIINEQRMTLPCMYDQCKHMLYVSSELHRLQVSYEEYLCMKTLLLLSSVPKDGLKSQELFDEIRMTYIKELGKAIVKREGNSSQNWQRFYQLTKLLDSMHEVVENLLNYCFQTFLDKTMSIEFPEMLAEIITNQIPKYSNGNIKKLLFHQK

[8] = molecular target: Safetyscreen44 off target panel (Homo sapiens, UniProt P46098)

Chain of CYP2C9 (P11712 whole entry): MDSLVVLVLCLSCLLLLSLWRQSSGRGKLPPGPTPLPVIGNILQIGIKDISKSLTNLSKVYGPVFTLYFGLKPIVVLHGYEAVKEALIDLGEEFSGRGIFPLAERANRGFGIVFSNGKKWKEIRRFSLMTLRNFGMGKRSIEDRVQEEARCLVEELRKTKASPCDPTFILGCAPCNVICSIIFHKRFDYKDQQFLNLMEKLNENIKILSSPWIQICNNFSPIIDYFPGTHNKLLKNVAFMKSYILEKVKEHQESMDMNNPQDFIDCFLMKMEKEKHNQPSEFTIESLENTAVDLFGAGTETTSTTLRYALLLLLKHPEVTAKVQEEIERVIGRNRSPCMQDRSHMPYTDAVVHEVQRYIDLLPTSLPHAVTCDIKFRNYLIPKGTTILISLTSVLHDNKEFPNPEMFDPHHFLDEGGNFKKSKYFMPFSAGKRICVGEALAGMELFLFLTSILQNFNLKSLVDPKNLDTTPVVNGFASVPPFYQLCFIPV

## C[C@H]1COc2c(N3CC[C@@H](Nc4ncccn4)C3)c(F)cc3c(=O)c(C(=O)O)cn1c23 [KSN-82-L22]
CYP2C9
  inhibition at 10 µM: 12.8%
CYP1A (printed CYPiA)
  inhibition at 10 µM: 9.56%
CYP2C8
  inhibition at 10 µM: 3.05%
CYP2B6
  inhibition at 10 µM: -1.32%
CYP2C19
  inhibition at 10 µM: 0.632%
CYP2D6
  inhibition at 10 µM: 0%
CYP3A; CYP3A inhibition (HLM, midazolam substrate)
  inhibition at 10 µM: 25.2%
CYP3A; CYP3A inhibition (HLM, testosterone substrate)
  inhibition at 10 µM: 6.52%
[1]; ATCC49226, strain ATCC 49226, PEN-I TET-I
  MIC: < 0.0312 µg/mL
[1]; ATCC700825, strain ATCC 700825
  MIC: 50 µg/mL (≈ 118 µM)
[1]; BAA1833, strain BAA-1833, PEN-I TET-I
  MIC: 50 µg/mL (≈ 118 µM)
[1]; BAA1838, strain BAA-1838
  MIC: 50 µg/mL (≈ 118 µM)
[1]; CCUG57595, strain CCUG 57595
  MIC: 50 µg/mL (≈ 118 µM)
[1]; CCUG57596
  MIC: 0.125 µg/mL (≈ 0.294 µM)
[1]; CCUG57597, strain CCUG 57597, FEP-NS FOX-I CAZ-NS CIP-R OFX-R PEN-R TET-R
  MIC: 2 µg/mL (≈ 4.7 µM)
[1]; CCUG57598, strain CCUG 57598, FOX-R CAZ-NS CRO-NS CIP-R OFX-R PEN-R TET-R
  MIC: 2 µg/mL (≈ 4.7 µM)
[1]; CCUG57599, strain CCUG 57599, CIP-R OFX-R PEN-R TET-R
  MIC: 0 to 5 µg/mL
[1]; CCUG57600, strain CCUG 57600, CIP-R OFX-R PEN-R TET-R
  MIC: 1 µg/mL (≈ 2.35 µM)
[1]; CCUG57601, strain CCUG 57601, PEN-R TET-R
  MIC: < 0.0312 µg/mL
[1]; CCUG57602, strain CCUG 57602, PEN-I TET-I
  MIC: 0.0625 µg/mL (≈ 0.147 µM)
[1]; NCTC13817, strain NCTC 13817, PEN-R TET-I
  MIC: 0 to 5 µg/mL
[1]; NCTC13818, strain NCTC 13818, CIP-R OFX-R PEN-R TET-R
  MIC: 2 µg/mL (≈ 4.7 µM)
[1]; NCTC13819, strain NCTC 13819, FEP-NS CAZ-NS CIP-R OFX-R PEN-R TET-I
  MIC: 2 µg/mL (≈ 4.7 µM)
[1]; NCTC13820, strain NCTC 13820, FEP-NS CFM-NS CAZ-NS CRO-NS CIP-R OFX-R PEN-R TET-R
  MIC: 2 µg/mL (≈ 4.7 µM)
[1]; NCTC13821, strain NCTC 13821, FEP-NS CFM-NS CAZ-NS CRO-NS CIP-R PEN-I TET-I
  MIC: 2 µg/mL (≈ 4.7 µM)
[1]; NCTC13822, strain NCTC 13822, FEP-NS CFM-NS CAZ-NS CIP-R OFX-R PEN-R TET-I
  MIC: 2 µg/mL (≈ 4.7 µM)
[1]; strain 2007NG046, PEN-R CFM-R CPD-R CIP-R
  MIC: 4 µg/mL (≈ 9.4 µM)
[1]; strain 2008NG057, PEN-R CFM-R CPD-R CIP-R
  MIC: 2 µg/mL (≈ 4.7 µM)
[1]; strain 2008NG097, PEN-R CFM-R CPD-R CIP-R
  MIC: 2 µg/mL (≈ 4.7 µM)
[1]; strain 2009NG514, PEN-R CPD-R CIP-R
  MIC: 2 µg/mL (≈ 4.7 µM)
[1]; strain 2010NG122, PEN-R CFM-R CIP-R
  MIC: 2 µg/mL (≈ 4.7 µM)
[1]; strain FDA-CDC AR-BANK#0165, CIP-R PEN-I TET-R
  MIC: 2 µg/mL (≈ 4.7 µM)
[1]; strain FDA-CDC AR-BANK#0166, CIP-R PEN-I TET-R
  MIC: 2 µg/mL (≈ 4.7 µM)
[1]; strain FDA-CDC AR-BANK#0167, CIP-S PEN-S TET-I
  MIC: < 0.0312 µg/mL
[1]; strain FDA-CDC AR-BANK#0168, CIP-R PEN-I TET-R
  MIC: 1 µg/mL (≈ 2.35 µM)
[1]; strain FDA-CDC AR-BANK#0169, CIP-R PEN-I TET-R
  MIC: 2 µg/mL (≈ 4.7 µM)
[1]; strain FDA-CDC AR-BANK#0170, CIP-R PEN-I TET-R
  MIC: 2 µg/mL (≈ 4.7 µM)
[1]; strain FDA-CDC AR-BANK#0171, CIP-R PEN-I TET-R
  MIC: 1 µg/mL (≈ 2.35 µM)
[1]; strain FDA-CDC AR-BANK#0172, CIP-R PEN-R TET-R
  MIC: 1 µg/mL (≈ 2.35 µM)
[1]; strain FDA-CDC AR-BANK#0173, CIP-R PEN-R TET-R
  MIC: 2 µg/mL (≈ 4.7 µM)
[1]; strain FDA-CDC AR-BANK#0174, CIP-R PEN-R TET-R
  MIC: 2 µg/mL (≈ 4.7 µM)
[1]; strain FDA-CDC AR-BANK#0175, CIP-S PEN-I TET-I
  MIC: < 0.0312 µg/mL
[1]; strain FDA-CDC AR-BANK#0176, CIP-R PEN-R TET-R
  MIC: 2 µg/mL (≈ 4.7 µM)
[1]; strain FDA-CDC AR-BANK#0177, CIP-S PEN-I TET-R
  MIC: < 0.0312 µg/mL
[1]; strain FDA-CDC AR-BANK#0178, CIP-R PEN-R TET-R
  MIC: 2 µg/mL (≈ 4.7 µM)
[1]; strain FDA-CDC AR-BANK#0179, CIP-S PEN-S TET-I
  MIC: < 0.0312 µg/mL
[1]; strain FDA-CDC AR-BANK#0180, CIP-R PEN-I TET-R
  MIC: 2 µg/mL (≈ 4.7 µM)
[1]; strain FDA-CDC AR-BANK#0181, CIP-S PEN-I TET-R
  MIC: < 0.0312 µg/mL
[1]; strain FDA-CDC AR-BANK#0182, CIP-R PEN-I TET-R
  MIC: 2 µg/mL (≈ 4.7 µM)
[1]; strain FDA-CDC AR-BANK#0183, CIP-R PEN-R TET-R
  MIC: 2 µg/mL (≈ 4.7 µM)
[1]; strain FDA-CDC AR-BANK#0184, CIP-R PEN-R TET-R
  MIC: 2 µg/mL (≈ 4.7 µM)
[1]; strain FDA-CDC AR-BANK#0185, CIP-R PEN-I TET-R
  MIC: 2 µg/mL (≈ 4.7 µM)
[1]; strain FDA-CDC AR-BANK#0186, CIP-R PEN-R TET-R
  MIC: 1 µg/mL (≈ 2.35 µM)
[1]; strain FDA-CDC AR-BANK#0187, CIP-R PEN-I TET-R
  MIC: 2 µg/mL (≈ 4.7 µM)
[1]; strain FDA-CDC AR-BANK#0188, CIP-R PEN-I TET-R
  MIC: 1 µg/mL (≈ 2.35 µM)
[1]; strain FDA-CDC AR-BANK#0189, CIP-R PEN-R TET-R
  MIC: 2 µg/mL (≈ 4.7 µM)
[1]; strain FDA-CDC AR-BANK#0190, CIP-R PEN-R TET-R
  MIC: 2 µg/mL (≈ 4.7 µM)
[1]; strain FDA-CDC AR-BANK#0191, CIP-R PEN-R TET-R
  MIC: 2 µg/mL (≈ 4.7 µM)
[1]; strain FDA-CDC AR-BANK#0192, CIP-R PEN-R TET-R
  MIC: 2 µg/mL (≈ 4.7 µM)
[1]; strain FDA-CDC AR-BANK#0193, CIP-S PEN-R TET-R
  MIC: < 0.0312 µg/mL
[1]; strain FDA-CDC AR-BANK#0194, CRO-NS CIP-S PEN-I TET-R
  MIC: < 0.0312 µg/mL
[1]; strain FDA-CDC AR-BANK#0195, CIP-R PEN-I TET-R
  MIC: 2 µg/mL (≈ 4.7 µM)
[1]; strain FDA-CDC AR-BANK#0196, CIP-R PEN-R TET-R
  MIC: 2 µg/mL (≈ 4.7 µM)
[1]; strain FDA-CDC AR-BANK#0197, CIP-R PEN-I TET-I
  MIC: 2 µg/mL (≈ 4.7 µM)
[1]; strain FDA-CDC AR-BANK#0198, CIP-R PEN-R TET-R
  MIC: 2 µg/mL (≈ 4.7 µM)
[1]; strain FDA-CDC AR-BANK#0199, CIP-S PEN-R TET-R
  MIC: < 0.0312 µg/mL
[1]; strain FDA-CDC AR-BANK#0200, CIP-R PEN-R TET-R
  MIC: 2 µg/mL (≈ 4.7 µM)
[1]; strain FDA-CDC AR-BANK#0201, CIP-R PEN-R TET-R
  MIC: 2 µg/mL (≈ 4.7 µM)
[1]; strain FDA-CDC AR-BANK#0202, CIP-S PEN-S TET-I
  MIC: < 0.0312 µg/mL
[1]; strain FDA-CDC AR-BANK#0203, CIP-R PEN-R TET-R
  MIC: 2 µg/mL (≈ 4.7 µM)
[1]; strain FDA-CDC AR-BANK#0204, CIP-R PEN-I TET-R
  MIC: 2 µg/mL (≈ 4.7 µM)
[1]; strain FDA-CDC AR-BANK#0205, CIP-R PEN-R TET-R
  MIC: 2 µg/mL (≈ 4.7 µM)
[1]; strain FDA-CDC AR-BANK#0206, CIP-R PEN-R TET-R
  MIC: 2 µg/mL (≈ 4.7 µM)
[1]; strain FDA-CDC AR-BANK#0207, CIP-R PEN-R TET-R
  MIC: 2 µg/mL (≈ 4.7 µM)
[1]; strain FDA-CDC AR-BANK#0208, CIP-R PEN-I TET-R
  MIC: 2 µg/mL (≈ 4.7 µM)
[1]; strain FDA-CDC AR-BANK#0209, CIP-R PEN-I TET-R
  MIC: 2 µg/mL (≈ 4.7 µM)
[1]; strain FDA-CDC AR-BANK#0210, CIP-R PEN-I TET-I
  MIC: 2 µg/mL (≈ 4.7 µM)
[1]; strain FDA-CDC AR-BANK#0211, CIP-R PEN-R TET-R
  MIC: 2 µg/mL (≈ 4.7 µM)
[1]; strain FDA-CDC AR-BANK#0212, CIP-R PEN-I TET-R
  MIC: 2 µg/mL (≈ 4.7 µM)
[1]; strain FDA-CDC AR-BANK#0213, CIP-R PEN-I TET-I
  MIC: 1 µg/mL (≈ 2.35 µM)
[1]; strain FDA-CDC AR-BANK#0214, CIP-R PEN-R TET-R
  MIC: 2 µg/mL (≈ 4.7 µM)
[1]; strain TCDC-NG08107, PEN-R CFM-R CPD-R CIP-R
  MIC: 2 µg/mL (≈ 4.7 µM)
[2]
  % inhibition, kappa (KOP) (agonist radioligand): 27.3513%
[3]
  % inhibition, COX2(h): 8.111%
[4]
  % inhibition, AR (h) (agonist radioligand): 4.241%
[5]
  % inhibition, 5-HT2A (h) (agonist radioligand): −8.881%
[6]
  % inhibition, ETA (h) (agonist radioligand): −5.236%
[7]
  % inhibition, GR (h) (agonist radioligand): 3.456%
[8]
  % inhibition, 5-HT3 (h) (antagonist radioligand): −4.708%
